{"source": "patent US9469650B2", "about": "“Melampomagnolide B derivatives” (BOARD OF TRUSTEES OF THE UNIVERSITY OF ARKANSAS, priority 2013, dated 2016)", "key": {"[1]": {"test_system": "BT-549", "experiment": "panel of 60 human tumor cell lines, growth inhibition (Breast Cancer)", "settings": "Homo sapiens"}, "[2]": {"test_system": "NCI-H522", "experiment": "panel of 60 human tumor cell lines, growth inhibition (Non-Small Cell Lung Cancer)", "settings": "Homo sapiens"}, "[3]": {"test_system": "OVCAR-5", "experiment": "panel of 60 human tumor cell lines, growth inhibition (Ovarian Cancer)", "settings": "Homo sapiens"}, "[4]": {"test_system": "MDA-MB-435", "experiment": "panel of 60 human tumor cell lines, growth inhibition (Melanoma)", "settings": "Homo sapiens"}, "[5]": {"test_system": "HS 578T", "experiment": "panel of 60 human tumor cell lines, growth inhibition (Breast Cancer)", "settings": "Homo sapiens, Hs-578T"}, "[6]": {"test_system": "786-0", "experiment": "panel of 60 human tumor cell lines, growth inhibition (Renal Cancer)", "settings": "Homo sapiens"}, "[7]": {"test_system": "K-562", "experiment": "panel of 60 human tumor cell lines, growth inhibition (Leukemia)"}, "[8]": {"test_system": "COLO 205", "experiment": "panel of 60 human tumor cell lines, growth inhibition (Colon Cancer)", "settings": "Homo sapiens"}, "[9]": {"test_system": "SW-620", "experiment": "panel of 60 human tumor cell lines, growth inhibition (Colon Cancer)", "settings": "Homo sapiens"}, "[10]": {"test_system": "SF-268", "experiment": "panel of 60 human tumor cell lines, growth inhibition (CNS Cancer)", "settings": "Homo sapiens"}, "[11]": {"test_system": "HCT-116", "experiment": "panel of 60 human tumor cell lines, growth inhibition (Colon Cancer)", "settings": "Homo sapiens"}, "[12]": {"test_system": "UO-31", "experiment": "panel of 60 human tumor cell lines, growth inhibition (Renal Cancer)", "settings": "Homo sapiens"}, "[13]": {"test_system": "NCI/ADR-RES", "experiment": "panel of 60 human tumor cell lines, growth inhibition (Ovarian Cancer)", "settings": "Homo sapiens"}, "[14]": {"test_system": "ACHN", "experiment": "panel of 60 human tumor cell lines, growth inhibition (Renal Cancer)", "settings": "Homo sapiens"}, "[15]": {"test_system": "SF-539", "experiment": "panel of 60 human tumor cell lines, growth inhibition (CNS Cancer)", "settings": "Homo sapiens"}, "[16]": {"test_system": "T-47D", "experiment": "panel of 60 human tumor cell lines, growth inhibition (Breast Cancer)", "settings": "Homo sapiens, T47D"}, "[17]": {"test_system": "OVCAR-8", "experiment": "panel of 60 human tumor cell lines, growth inhibition (Ovarian Cancer)", "settings": "Homo sapiens"}, "[18]": {"test_system": "IGROV1", "experiment": "panel of 60 human tumor cell lines, growth inhibition (Ovarian Cancer)", "settings": "Homo sapiens"}}}
{"compound": "C=C1C(=O)O[C@H]2[C@H]1CC/C(COC(=O)OCCCN1CCCCC1)=C\\CC[C@@]1(C)O[C@@H]21", "note": "[JVM 2-26]", "values": [{"measurement": "GI50", "setting": "[1]; BT-549", "result": 3.12, "unit": "µM"}, {"measurement": "CC50", "setting": "[1]; BT-549, read-out: LC50", "result": 38.7, "unit": "µM"}, {"measurement": "IC (TGI)", "setting": "[1]; BT-549, read-out: TGI", "result": 15, "unit": "µM"}, {"measurement": "GI50", "setting": "[2]; NCI-H522", "result": 1.41, "unit": "µM"}, {"measurement": "CC50", "setting": "[2]; NCI-H522, read-out: LC50", "result": 7.24, "unit": "µM"}, {"measurement": "IC (TGI)", "setting": "[2]; NCI-H522, read-out: TGI", "result": 3.2, "unit": "µM"}, {"measurement": "GI50", "setting": "[3]; OVCAR-5", "result": 10.1, "unit": "µM"}, {"measurement": "CC50", "setting": "[3]; OVCAR-5, read-out: LC50", "result": 50.9, "unit": "µM"}, {"measurement": "IC (TGI)", "setting": "[3]; OVCAR-5, read-out: TGI", "result": 22.7, "unit": "µM"}, {"measurement": "GI50", "setting": "[4]; MDA-MB-435", "result": 2.99, "unit": "µM"}, {"measurement": "CC50", "setting": "[4]; MDA-MB-435, read-out: LC50", "result": 38.5, "unit": "µM"}, {"measurement": "IC (TGI)", "setting": "[4]; MDA-MB-435, read-out: TGI", "result": 13.2, "unit": "µM"}, {"measurement": "GI50", "setting": "[5]", "result": 4.96, "unit": "µM"}, {"measurement": "CC50", "setting": "[5]; read-out: LC50", "result": "> 100", "unit": "µM"}, {"measurement": "IC (TGI)", "setting": "[5]; read-out: TGI", "result": 26.8, "unit": "µM"}, {"measurement": "GI50", "setting": "[6]; 786-0", "result": 2.48, "unit": "µM"}, {"measurement": "CC50", "setting": "[6]; 786-0, read-out: LC50", "result": 37.3, "unit": "µM"}, {"measurement": "IC (TGI)", "setting": "[6]; 786-0, read-out: TGI", "result": 11.1, "unit": "µM"}, {"measurement": "GI50", "setting": "[7]; Homo sapiens, K562", "result": 3.27, "unit": "µM"}, {"measurement": "CC50", "setting": "[7]; Homo sapiens, K562, read-out: LC50", "result": "> 100", "unit": "µM"}, {"measurement": "TGI", "setting": "[7]; K-562", "result": "1.52E−5"}, {"measurement": "Percent Growth", "setting": "[7]; K-562, Log10 Concentration −4.0", "result": "−42", "unit": "%"}, {"measurement": "Percent Growth", "setting": "[7]; K-562, Log10 Concentration −5.0", "result": 9, "unit": "%"}, {"measurement": "Percent Growth", "setting": "[7]; K-562, Log10 Concentration −6.0", "result": 93, "unit": "%"}, {"measurement": "Percent Growth", "setting": "[7]; K-562, Log10 Concentration −7.0", "result": "96.", "unit": "%"}, {"measurement": "Percent Growth", "setting": "[7]; K-562, Log10 Concentration −8.0", "result": 100, "unit": "%"}, {"measurement": "GI50", "setting": "[8]; COLO 205", "result": 1.7, "unit": "µM"}, {"measurement": "CC50", "setting": "[8]; COLO 205, read-out: LC50", "result": 7.07, "unit": "µM"}, {"measurement": "IC (TGI)", "setting": "[8]; COLO 205, read-out: TGI", "result": 3.47, "unit": "µM"}, {"measurement": "GI50", "setting": "[9]; SW-620, SW-620", "result": 2.23, "unit": "µM"}, {"measurement": "CC50", "setting": "[9]; SW-620, read-out: LC50", "result": 37.3, "unit": "µM"}, {"measurement": "IC (TGI)", "setting": "[9]; SW-620, read-out: TGI", "result": 8.74, "unit": "µM"}, {"measurement": "GI50", "setting": "[10]; SF-268", "result": 6.14, "unit": "µM"}, {"measurement": "CC50", "setting": "[10]; SF-268, read-out: LC50", "result": 53.2, "unit": "µM"}, {"measurement": "IC (TGI)", "setting": "[10]; SF-268, read-out: TGI", "result": 20.6, "unit": "µM"}, {"measurement": "GI50", "setting": "[11]; HCT-116, HCT-116", "result": 2.07, "unit": "µM"}, {"measurement": "CC50", "setting": "[11]; HCT-116, read-out: LC50", "result": 23.9, "unit": "µM"}, {"measurement": "IC (TGI)", "setting": "[11]; HCT-116, read-out: TGI", "result": 6.42, "unit": "µM"}, {"measurement": "GI50", "setting": "[12]; UO-31", "result": 2.36, "unit": "µM"}, {"measurement": "CC50", "setting": "[12]; UO-31, read-out: LC50", "result": 46.3, "unit": "µM"}, {"measurement": "IC (TGI)", "setting": "[12]; UO-31, read-out: TGI", "result": 12.5, "unit": "µM"}, {"measurement": "GI50", "setting": "[13]", "result": 17.2, "unit": "µM"}, {"measurement": "CC50", "setting": "[13]; read-out: LC50", "result": "> 100", "unit": "µM"}, {"measurement": "IC (TGI)", "setting": "[13]; read-out: TGI", "result": 45.8, "unit": "µM"}, {"measurement": "GI50", "setting": "[14]", "result": 2.14, "unit": "µM"}, {"measurement": "CC50", "setting": "[14]; read-out: LC50", "result": 31.5, "unit": "µM"}, {"measurement": "IC (TGI)", "setting": "[14]; read-out: TGI", "result": 8.06, "unit": "µM"}, {"measurement": "GI50", "setting": "[15]; SF-539", "result": 2.39, "unit": "µM"}, {"measurement": "CC50", "setting": "[15]; SF-539, read-out: LC50", "result": 32.1, "unit": "µM"}, {"measurement": "IC (TGI)", "setting": "[15]; SF-539, read-out: TGI", "result": 8.7, "unit": "µM"}, {"measurement": "GI50", "setting": "[16]", "result": 2.34, "unit": "µM"}, {"measurement": "CC50", "setting": "[16]; read-out: LC50", "result": 45.9, "unit": "µM"}, {"measurement": "IC (TGI)", "setting": "[16]; read-out: TGI", "result": 8.12, "unit": "µM"}, {"measurement": "GI50", "setting": "[17]; OVCAR-8", "result": 10.3, "unit": "µM"}, {"measurement": "CC50", "setting": "[17]; OVCAR-8, read-out: LC50", "result": 53.3, "unit": "µM"}, {"measurement": "IC (TGI)", "setting": "[17]; OVCAR-8, read-out: TGI", "result": 13.5, "unit": "µM"}, {"measurement": "GI50", "setting": "[18]; IGROV-1", "result": 13.2, "unit": "µM"}, {"measurement": "CC50", "setting": "[18]; IGROV-1, read-out: LC50", "result": 76.3, "unit": "µM"}, {"measurement": "IC (TGI)", "setting": "[18]; IGROV-1, read-out: TGI", "result": 31.7, "unit": "µM"}]}
